# Measurements: publication PMC2877818, “Thermodynamics of RTA3 peptide binding to membranes and consequences for antimicrobial activity^” (Biochimica et Biophysica Acta, 2010)
# Like-named read-outs stand apart in the source and are kept apart here.
# Assays:
# [1] = system: E. coli ATCC 25922; format: cell-based; details: broth microdilution, Mueller Hinton (plus cations) broth, 24 hours at 37 °C, no visible growth; triplicate, averaged
# Procedure: (§1) Minimum inhibitory concentrations (MIC) of the peptides were determined by broth microdilution according to the Clinical and Laboratory Standards Institute. About 90 µL of 0.5–1 × 10^6 CFU/mL of Pseudomonas aeruginosa ATCC 27853 and E. coli ATCC 25922 in Mueller Hinton media (plus cations) broth (BD, Baltimore, MD, USA) was incubated in 96-well microtitre plates with serial twofold dilutions of the peptides. Minimum inhibitory concentrations (MICs) were defined as the lowest peptide concentration with no visible growth of bacteria after 24 hours at 37 °C. All measurements were made in triplicate and averaged.
# [2] = system: E. coli 345-2; format: cell-based; details: broth microdilution, Mueller Hinton (plus cations) broth, 24 hours at 37 °C; triplicate, averaged
# [3] = system: E. coli UB 122; format: cell-based; details: broth microdilution, Mueller Hinton (plus cations) broth, 24 hours at 37 °C; triplicate, averaged
# [4] = system: E. coli 345-2 outer membrane; experiment: Outer membrane permeabilization to nitrocefin; details: read-out: OM permeabilization: peptide concentration resulting in half-maximal translocated substrate turnover, triplicate
# Procedure: Outer and inner membrane permeabilities were determined as described previously [16]. E. coli cells overexpressing β-lactamase were grown to logarithmic phase, washed, and resuspended (10^8 CFU/mL) in 10 mM HEPES buffer pH 7.4. About 90 µL of 1 × 10^7 CFU of the test organism (E. coli 345-2) containing 20 µg/mL nitrocefin was then added to 96-well microtitre plates containing serial twofold dilutions of antimicrobial peptides. Nitrocefin cleavage was monitored by measuring A490. All data were measured in triplicate.
# [5] = system: P. aeruginosa ATCC 27853; format: cell-based, Pseudomonas aeruginosa; details: broth microdilution, Mueller Hinton (plus cations) broth, 24 hours at 37 °C, no visible growth; triplicate, averaged
# Procedure: as §1
# [6] = system: E. coli 122 inner membrane; experiment: Inner membrane permeabilization to ONPG; details: read-out: IM permeabilization: peptide concentration resulting in half-maximal translocated substrate turnover, PBS pH 7.4, 30 °C, triplicate
# Procedure: Inner membrane permeability was determined by measuring the β-galactosidase activity of lactose permease-deficient E. coli at 30 °C using ONPG as substrate. E. coli cells overexpressing the β- galactosidase enzyme (E. coli 122) were grown to logarithmic phase, washed, and resuspended (10^8 CFU/mL) in phosphate buffered saline pH 7.4. About 90 µL of 1 × 10^7 CFU of the test organism containing 0.4 mg/mL ONPG was then added to 96-well microtitre plates containing serial twofold dilutions of antimicrobial peptides. The production of o-nitrophenol was monitored spectrophotometrically at 420 nm. An equivalent volume of water replaced the peptide solution in the control assay. All data were measured in triplicate.
substance,measurement,setting,value
Polymyxin E,MIC E. coli ATCC 25922,[1],1 µM
same,MIC E. coli 345-2,[2],0.5 µM
same,MIC E. coli UB 122,[3],0.5 µM
same,EC50,"[4]; +Mg2+ (0.4 mM MgCl2), nitrocefin, 10 mM HEPES pH 7.4",1.8 µM
same,EC50,"[4]; −Mg2+, nitrocefin 20 µg/mL, 10 mM HEPES pH 7.4, A490",2 µM
same,MIC P. aeruginosa ATCC 27853,[5],2 µM
same,EC50,"[6]; +Mg2+ (0.4 mM MgCl2), ONPG",> 100 µM
same,EC50,"[6]; −Mg2+, ONPG 0.4 mg/mL, 420 nm",> 40 µM
